From PMC9476334 (Chemico-Biological Interactions, 2022)

Target: SARS-CoV-2 spike S1 RBD / ACE2 interaction (S-RBD protein binding to ACE2) (Severe acute respiratory syndrome coronavirus 2, UniProt P0DTC2)
Test: biochemical

## N=C(N)c1ccc(/N=N/Nc2ccc(C(=N)N)cc2)cc1 [DIZE]
  IC50: 20.6 µM
